# Results taken from patent publication US5444042A, “Method of treatment of neurodegeneration with calpain inhibitors” (Cortex Pharmaceuticals, priority 1994, dated 1995).
# Where a SMILES comes first, the peptide text is derived from it. The star is where a group is joined. CH2Cl = ClC*
# Experiments:
# Calpain II = Calpain II KI (Table 1B(ii)); type: biochemical
# Excerpt: (§1) We tested the ability of an additional group of Peptide Keto-Compounds to inhibit several proteases in order to evaluate their specificity for Calpain.
# Chym = Chym (Bos taurus, UniProt P00766); assay: Chym KI (Table 1B(ii)); type: biochemical
# Excerpt: as §1
# PP Elastase = PP Elastase (Sus scrofa, UniProt P00772); assay: PP Elastase KI (Table 1B(ii)); type: biochemical
# Excerpt: as §1
# Stability in plasma = type: in vitro ADME; details: unit assumed
# Excerpt: We determined the haft-life of several Peptide Keto-Compounds in both plasma and liver homogenates.
# Calpain within platelets = assay: Platelet membrane permeation assay, spectrin proteolysis (Examples 4A, 4B); type: cell-based, rat; details: for inhibition of Calpain within platelets: A23187 1 μM; for IC50: concentration at which 50% of the Calpain activation present in controls occurred
# Protocol: Platelets were isolated by a modification of the method of Ferrell and Martin, J Biol. Chem., 264:20723-20729 (1989), the disclosure of which is hereby incorporated by reference. Blood (15-20 ml) was drawn from male Sprague-Dawley rats into 100 mM EDTA-citrate containing 10 units heparin, and centrifuged 30 minutes at 1600 rpm at room temperature. The plasma was resuspended in 15 ml buffer 1 (136 mM NaCl, 2.7 mM KCl, 0.42 mM NaH2 PO4, 12 mM NaHCO3, 2 mM MgCl2, 2 mg/ml BSA (Sigma), 5.6 mM glucose, 22 mM Na3 Citrate pH 6.5) and platelets were isolated at 2200 rpm at room temperature of 25 minutes. Platelets were resuspended to 10^7 cells/ml in buffer 2 (136 mM NaCl, 2.7 mM KCl, 0.42 NaH2 PO4, 12 mM NaHCO3, 2 mM MgCl, 1 mg/ml BSA, 5.6 mM glucose, 20 mM HEPES pH 7.4) and allowed to "rest" for a minimum of 10 minutes at room temperature before use.
# Platelets were incubated for 5 minutes in the presence of inhibitor. In order to provide sufficient intracellular calcium to activate Calpain, the calcium ionophore A23187 was added to a final concentration of 1 μM. After a further 5 minute incubation, the platelets were harvested by centrifugation (1 min 10,000×g) and resuspended in 10% sodium dodecyl sulfate, 10 mM Tris pH=8.0, 5% β-mercaptoethanol, 0.02% bromophenol blue, and heated to 95° C. for 5 min. Samples were subjected to SDS-PAGE on 6% mini gels and transferred to nitrocellulose (Schleicher and Schuell BAS3) for 2 hours at 100 mA/gel in an LKB Novablot. Filters were blocked for 10 minutes in 0.25% gelatin, 1% BSA, 0.25% Triton X100, 0.9% NaCl, 10 mM Tris-Cl pH 7.5, incubated overnight in the same solution containing antibody to rat spectrin, washed 3×10 minutes with 10 mM Tris-Cl pH 7.5, 0.5 % Triton X100, incubated 4 hours in wash buffer plus alkaline phosphatase conjugated goat anti-rabbit antibody (Biorad), and washed as above. Filters were developed using the Biorad AP conjugate substrate kit. Spectrin immunoreactivity on the filters was quantitated by densitometry.
# [1] = tested on: Calpain in crude brain extracts; assay: Ca2+-stimulated spectrin proteolysis in crude brain extracts (Example 2); type: biochemical; details: 100 μM
# Protocol: The activity of Calpain in crude brain extracts was measured by examining the Ca^2+ -stimulated proteolysis of the endogenous substrate spectrin. Brain tissue was homogenized in 10 mM Tris pH=7.4, 0.32M sucrose, 1 mM EGTA, 1 mM dithiothreitol and the nuclei and debris removed by low speed centrifugation. […] Proteolysis of spectrin was evaluated by western blot as described by Seubert, et at. (Brain Research, 459:226-232, 1988), the disclosure of which is hereby incorporated by reference. Briefly, a known quantity of a spectrin-containing sample treated with Calpain is separated by SDS-PAGE and immunoblotted with anti-spectrin antibody. The amount of spectrin immunoreactivity found corresponding to the characteristic BDP's is indicative of the amount of […] activity present in the sample. An examplary method for quantitating BDP's is to assay Spectrin BDP's by homogenizing brain parts in 20 mM Tris pH=7.2, 0.32M sucrose, 50 μM Ac-Leu-Leu-nLeu-H on ice. Homogenates are then mixed 1:1 with 10% SDS, 5% β-mercaptoethanol, 10% glycerol, 10 mM Tris pH=8.0, 0.5% bromophenolblue, heated to 95° C., and subjected to electrophoresis in 41/2% polyacrylamide gels. The proteins in the gels are transferred to nitrocellulose and the spectrin and BDP's detected using a rabbit polyclonal anti-spectrin antibody and established immunodetection methods. The amount of spectrin and BDP's in each sample can be quantitated by densitrometric scanning of the developed nitrocellulose.
# Cathepsin B = Cathepsin B (Bos taurus, UniProt P07688); assay: Cathepsin B KI (Table 1B(ii)); type: biochemical; details: read-out: KI CathB
# Excerpt: as §1
# Calpain I = target: T1, Calpain I (Homo sapiens, UniProt P07384); assay: Calpain I KI (Table 1B(ii)); type: biochemical; details: Table 1B(ii)
# T1 sequence (P07384 1-714): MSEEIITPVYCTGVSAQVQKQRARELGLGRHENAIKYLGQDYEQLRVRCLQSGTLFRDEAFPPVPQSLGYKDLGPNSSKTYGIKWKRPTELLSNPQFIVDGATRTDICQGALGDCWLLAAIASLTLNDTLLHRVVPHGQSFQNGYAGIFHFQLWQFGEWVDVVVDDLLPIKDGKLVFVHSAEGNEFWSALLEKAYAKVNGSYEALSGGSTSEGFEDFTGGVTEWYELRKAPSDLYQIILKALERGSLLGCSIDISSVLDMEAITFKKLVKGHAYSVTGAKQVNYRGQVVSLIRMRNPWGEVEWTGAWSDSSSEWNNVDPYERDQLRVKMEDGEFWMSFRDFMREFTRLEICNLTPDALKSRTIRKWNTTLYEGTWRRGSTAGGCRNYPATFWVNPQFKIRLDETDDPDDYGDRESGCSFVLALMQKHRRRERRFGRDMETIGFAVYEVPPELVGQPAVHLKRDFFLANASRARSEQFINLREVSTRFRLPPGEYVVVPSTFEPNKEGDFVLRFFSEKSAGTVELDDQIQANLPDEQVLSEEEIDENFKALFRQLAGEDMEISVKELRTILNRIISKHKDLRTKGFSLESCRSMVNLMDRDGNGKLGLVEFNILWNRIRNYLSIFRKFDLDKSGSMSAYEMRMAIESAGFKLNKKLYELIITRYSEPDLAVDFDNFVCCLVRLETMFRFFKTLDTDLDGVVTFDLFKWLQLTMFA
# T1 sequence (P04632 1-268 partner): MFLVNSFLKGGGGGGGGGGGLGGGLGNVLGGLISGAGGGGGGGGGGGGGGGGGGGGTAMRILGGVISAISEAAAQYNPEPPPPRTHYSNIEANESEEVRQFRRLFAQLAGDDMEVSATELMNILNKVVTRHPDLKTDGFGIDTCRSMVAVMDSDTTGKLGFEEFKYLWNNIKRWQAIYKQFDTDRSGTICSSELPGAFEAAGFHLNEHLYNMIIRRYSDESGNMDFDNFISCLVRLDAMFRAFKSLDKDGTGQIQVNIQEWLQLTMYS
# Excerpt: as §1
# Sequence of PP Elastase (P00772 27-266): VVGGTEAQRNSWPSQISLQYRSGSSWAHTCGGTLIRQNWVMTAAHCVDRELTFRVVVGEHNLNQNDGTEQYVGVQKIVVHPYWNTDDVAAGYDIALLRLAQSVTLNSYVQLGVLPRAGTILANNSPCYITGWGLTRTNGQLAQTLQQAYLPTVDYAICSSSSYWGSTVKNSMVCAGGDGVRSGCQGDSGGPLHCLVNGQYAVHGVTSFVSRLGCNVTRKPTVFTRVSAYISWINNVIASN
Ki (Calpain II),Molecule,inhibition of Calpain within platelets (Calpain within platelets; 100 μM),inhibition of spectrin proteolysis in crude brain extracts [1],other results
0.09 µM,CCOC(=O)C(=O)[C@H](CC)NC(=O)[C@H](CC(C)C)NC(=O)[C@H](CC(C)C)NC(=O)c1ccc2ccccc2c1 [2-NapCO-Leu-Leu-Abu-COOEt],,,Ki (Chym): > 300 µM; Ki (PP Elastase): 28 µM; t1/2 plasma (Stability in plasma): 0.417 h
,CCOC(=O)C(=O)C(CC)NC(=O)C(CC(C)C)NS(=O)(=O)c1ccc2ccccc2c1 (stereo not drawn) [2-NapSO2 -Leu-Abu-COOEt],significant inhibition,,
,"O=c1oc(Cl)c(Cl)c2ccccc12 [3,4-dichloroisocoumarin, reference compound]",,significant inhibition,
,O=c1oc(OCc2ccccc2)c(Cl)c2ccccc12 [3-benzyloxy-4-chloroisocoumarin],,significant inhibition,
,"O=c1oc(Cl)cc2ccccc12 [3-chloroisocoumarin, reference compound]",significant inhibition,significant inhibition,
,N=C(N)SCCCOc1oc(=O)c2cc(NC(=O)CCc3ccccc3)ccc2c1Cl [7-(3-phenylpropionylamino)-4-chloro-3-(3-isothiureidopropoxy)isocoumarin],significant inhibition,significant inhibition,
,CCCOc1oc(=O)c2cc(NC(C)=O)ccc2c1Cl [7-(acetylamino)-4-chloro-3-(propoxy)-isocoumarin],,significant inhibition,
,N=C(N)SCCCOc1oc(=O)c2cc(NC(=O)Cc3ccccc3)ccc2c1Cl [7-(phenylacetylamino)-4-chloro-3-(3-isothiureidopropoxy)isocoumarin],significant inhibition,significant inhibition,
,N=C(N)SCCOc1oc(=O)c2cc(NC(=O)Nc3ccccc3)ccc2c1Cl [7-(phenylcarbamoylamino)-4-chloro-3-(2-isothiureidoethoxy)isocoumarin],significant inhibition,significant inhibition,
,N=C(N)SCCCOc1oc(=O)c2cc(NC(=O)Nc3ccccc3)ccc2c1Cl [7-(phenylcarbamoylamino)-4-chloro-3-(3-isothiureidopropoxy)isocoumarin],significant inhibition,significant inhibition,
,CC(=O)NC(C(=O)NC(Cc1ccccc1)C(=O)CCl)C(C)C (stereo not drawn) [Ac-Val-Phe-CH2Cl] (Ac-Val-Phe-CH2Cl; configuration not given here),,significant inhibition,
1.2 µM,CCOC(=O)C(=O)C(CC)NC(=O)C(CC(C)C)NC(=O)C(C)(C)c1ccccc1 (stereo not drawn) [Ph-(CH3)2 -CO-Leu-Abu-COOEt],,,
0.022 µM,"CC[C@H](NC(=O)[C@H](CC(C)C)NC(=O)OCc1ccccc1)C(=O)C(=O)NCCc1ccccc1 [Z-Leu-Abu-CONH-(CH2)2 -Ph, Z-Leu-Abu-CONH-(CH2)2 Ph]",,,
0.078 µM,CCC(NC(=O)C(CC(C)C)NC(=O)OCc1ccccc1)C(=O)C(=O)NCCO (stereo not drawn) [Z-Leu-Abu-CONH-(CH2)2 OH],,,
0.041 µM,"CC[C@H](NC(=O)[C@H](CC(C)C)NC(=O)OCc1ccccc1)C(=O)C(=O)NCCCN1CCOCC1 [Z-Leu-Abu-CONH-(CH2)3 -Mpl, Z-Leu-Abu-CONH--(CH2)3 -N(CH2 CH2)2 O]",,,
0.019 µM,"CCCCCCCCNC(=O)C(=O)[C@H](CC)NC(=O)[C@H](CC(C)C)NC(=O)OCc1ccccc1 [Z-Leu-Abu-CONH-(CH2)7 CH3, Z-Leu-Abu-CONH--(CH2)7 CH3]",,,
0.14 µM,"CCC(NC(=O)C(CC(C)C)NC(=O)OCc1ccccc1)C(=O)C(=O)NCC(C)C (stereo not drawn) [Z-Leu-Abu-CONHiBu, Z-Leu-Abu-CONH-iBu]",,,Ki (Cathepsin B): 4 µM; Ki (Chym): > 300 µM; Ki (PP Elastase): 40 µM; t1/2 plasma (Stability in plasma): > 1 h; IC50 (Calpain within platelets): 28 µM
2.6 µM,CCOC(=O)C(=O)C(CC)NC(=O)C(CC(C)C)NC(=O)C(CC(C)C)NC(=O)OCc1ccccc1 (stereo not drawn) [Z-Leu-Leu-Abu-COOEt],significant inhibition,,Ki (Cathepsin B): 22 µM; Ki (Chym): > 100 µM; Ki (PP Elastase): 25 µM; IC50 (Calpain within platelets): 40 µM
0.024 µM,"CC(C)C[C@H](NC(=O)OCc1ccccc1)C(=O)N[C@@H](Cc1ccccc1)C(=O)C(=O)NCCc1ccccc1 [Z-Leu-Phe-CONH(CH2)2 Ph, Z-Leu-Phe-CONH-(CH2)2 Ph]",,,Ki (Chym): 2 µM; t1/2 plasma (Stability in plasma): > 1 h; IC50 (Calpain within platelets): 3 µM
0.046 µM,"CC(C)C[C@H](NC(=O)OCc1ccccc1)C(=O)N[C@@H](Cc1ccccc1)C(=O)C(=O)NCc1ccccc1 [Z-Leu-Phe-CONHBz, Z-Leu-Phe-CONH-Bzl]",,,
0.065 µM,"CC(C)CNC(=O)C(=O)[C@H](Cc1ccccc1)NC(=O)[C@H](CC(C)C)NC(=O)OCc1ccccc1 [Z-Leu-Phe-CONHiBu, Z-Leu-Phe-CONH-iBu]",,,Ki (Cathepsin B): 4 µM; Ki (Chym): 24 µM; t1/2 plasma (Stability in plasma): > 1 h; IC50 (Calpain within platelets): 22 µM
,Z-Leu-Abu,significant inhibition,,

Molecule,Ki (Calpain II),inhibition of Calpain within platelets (Calpain within platelets; 100 μM),inhibition of spectrin proteolysis in crude brain extracts [1],other results
"CC[C@H](NC(=O)[C@H](CC(C)C)NC(=O)OCc1ccccc1)C(=O)C(=O)OCc1ccccc1 [Z-Leu-Abu-COOBz, Z-Leu-Abu-CO2 Bzl]",0.47 µM,significant inhibition,,"Ki (Calpain I): 9.5 µM; Ki (Cathepsin B): 4 µM; Ki (Chym): 40 µM; Ki (PP Elastase): > 100 µM; platelet assay, semi-quantitative (Calpain within platelets; semi-quantitative, 100 μM): ++"
